The values below come from the supplement of paper PMC10307832.

Test in all cases: relative viability (nuclei count vs DMSO), 5 days (fraction); higher = more cells survive
Compound in the assay “CX-5461 + Navitoclax”: Cc1cnc(CNC(=O)c2c(=O)c3ccc(N4CCCN(C)CC4)nc3n3c2sc2ccccc23)cn1 [CX-5461] + CC1(C)CCC(c2ccc(Cl)cc2)=C(CN2CCN(c3ccc(C(=O)NS(=O)(=O)c4ccc(N[C@H](CCN5CCOCC5)CSc5ccccc5)c(S(=O)(=O)C(F)(F)F)c4)cc3)CC2)C1 [Navitoclax] (partner 0.5 µM)
In a few lines: (§1)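 Values are medians from duplicate plates. Each reflects relative viability, defined as the nuclei count of treated wells over that of vehicle wells. Lung cancer cell lines in 1536-well plates were pin-tool dosed one day after seeding with one drug alone or with a fixed anchor-drug dose plus five library-drug doses (not always all listed) in √10 steps, then fixed, stained and imaged at 4× after 5 days.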

Compound in the assay “CX-5461 + Palbociclib”: Cc1cnc(CNC(=O)c2c(=O)c3ccc(N4CCCN(C)CC4)nc3n3c2sc2ccccc23)cn1 [CX-5461] + CC(=O)c1c(C)c2cnc(Nc3ccc(N4CCNCC4)cn3)nc2n(C2CCCC2)c1=O [Palbociclib] (partner 0.5 µM)
In a few lines: as §1

Compound in the assay “CX-5461 + Linsitinib”: Cc1cnc(CNC(=O)c2c(=O)c3ccc(N4CCCN(C)CC4)nc3n3c2sc2ccccc23)cn1 [CX-5461] + C[C@]1(O)C[C@@H](c2nc(-c3ccc4ccc(-c5ccccc5)nc4c3)c3c(N)nccn32)C1 [Linsitinib] (partner 1 µM)
The gist of the method:
as §1

Compound in the assay “CX-5461 + Trametinib”: Cc1cnc(CNC(=O)c2c(=O)c3ccc(N4CCCN(C)CC4)nc3n3c2sc2ccccc23)cn1 [CX-5461] + CC(=O)Nc1cccc(-n2c(=O)n(C3CC3)c(=O)c3c(Nc4ccc(I)cc4F)n(C)c(=O)c(C)c32)c1 [Trametinib] (partner 0.02 µM)
In a few lines:
as §1

Regarding NCI-H2228, the relative viability is 0.822 with CX-5461 + Navitoclax (first compound 0.01 µM); 0.572 with CX-5461 + Navitoclax (first compound 0.03162 µM); 0.513 with CX-5461 + Navitoclax (first compound 0.1 µM); 0.552 with CX-5461 + Navitoclax (first compound 0.3162 µM); 0.0937 with CX-5461 + Navitoclax (first compound 1 µM); 0.709 with CX-5461 + Palbociclib (first compound 0.01 µM). The relative viability with CX-5461 + Palbociclib (first compound 0.03162 µM) was found to be 0.612; with CX-5461 + Palbociclib (first compound 0.1 µM), 0.563; with CX-5461 + Palbociclib (first compound 0.3162 µM) it was 0.73; with CX-5461 + Palbociclib (first compound 1 µM), 0.115; with CX-5461 + Linsitinib (first compound 0.01 µM) it was 0.736; with CX-5461 + Linsitinib (first compound 0.03162 µM) it was 0.975. Moreover, the relative viability in the assay with CX-5461 + Linsitinib (first compound 0.1 µM) was found to be 0.416; with CX-5461 + Linsitinib (first compound 0.3162 µM) it was 0.718; with CX-5461 + Linsitinib (first compound 1 µM) it was 0.282; in the assay with CX-5461 + Trametinib (first compound 0.01 µM), 0.553; with CX-5461 + Trametinib (first compound 0.03162 µM) it was 0.489; with CX-5461 + Trametinib (first compound 0.1 µM), 0.418. The relative viability with CX-5461 + Trametinib (first compound 0.3162 µM) came to 0.432; with CX-5461 + Trametinib (first compound 1 µM), 0.236.

Take NCI-H2347: the relative viability with CX-5461 + Navitoclax (first compound 0.01 µM) came out at 0.968; in the assay with CX-5461 + Navitoclax (first compound 0.03162 µM), 0.864; in the assay with CX-5461 + Navitoclax (first compound 0.1 µM) it was 0.858; in the assay with CX-5461 + Navitoclax (first compound 0.3162 µM), 0.601; in the assay with CX-5461 + Navitoclax (first compound 1 µM) it was 0.73; with CX-5461 + Palbociclib (first compound 0.01 µM), 0.424. Also, the relative viability in the assay with CX-5461 + Palbociclib (first compound 0.03162 µM) was found to be 0.437; with CX-5461 + Palbociclib (first compound 0.1 µM), 0.427; in the assay with CX-5461 + Palbociclib (first compound 0.3162 µM), 0.407; in the assay with CX-5461 + Palbociclib (first compound 1 µM) it was 0.404; with CX-5461 + Linsitinib (first compound 0.01 µM), 0.963; in the assay with CX-5461 + Linsitinib (first compound 0.03162 µM), 1.03. Further, the relative viability in the assay with CX-5461 + Linsitinib (first compound 0.1 µM) is 1.04; with CX-5461 + Linsitinib (first compound 0.3162 µM), 0.582; with CX-5461 + Linsitinib (first compound 1 µM), 0.795; in the assay with CX-5461 + Trametinib (first compound 0.01 µM), 0.273; in the assay with CX-5461 + Trametinib (first compound 0.03162 µM), 0.279; with CX-5461 + Trametinib (first compound 0.1 µM), 0.292. In addition, the values for the relative viability with CX-5461 + Trametinib (first compound 0.3162 µM) and in the assay with CX-5461 + Trametinib (first compound 1 µM) were 0.272 and 0.223, respectively.

Regarding NCI-H2405, the relative viability in the assay with CX-5461 + Navitoclax (first compound 0.01 µM) turned out to be 0.957; with CX-5461 + Navitoclax (first compound 0.03162 µM), 0.92; in the assay with CX-5461 + Navitoclax (first compound 0.1 µM), 0.997; with CX-5461 + Navitoclax (first compound 0.3162 µM) it was 0.431; in the assay with CX-5461 + Navitoclax (first compound 1 µM) it was 0.743; with CX-5461 + Palbociclib (first compound 0.01 µM), 0.515. The relative viability in the assay with CX-5461 + Palbociclib (first compound 0.03162 µM) amounted to 0.549; with CX-5461 + Palbociclib (first compound 0.1 µM), 0.547; with CX-5461 + Palbociclib (first compound 0.3162 µM) it was 0.503; in the assay with CX-5461 + Palbociclib (first compound 1 µM) it was 0.45; in the assay with CX-5461 + Linsitinib (first compound 0.01 µM) it was 1.03; with CX-5461 + Linsitinib (first compound 0.03162 µM), 0.898. In addition, the relative viability is 0.993 with CX-5461 + Linsitinib (first compound 0.1 µM); 0.897 with CX-5461 + Linsitinib (first compound 0.3162 µM); 0.757 in the assay with CX-5461 + Linsitinib (first compound 1 µM); 0.652 in the assay with CX-5461 + Trametinib (first compound 0.01 µM); 0.594 with CX-5461 + Trametinib (first compound 0.03162 µM); 0.724 with CX-5461 + Trametinib (first compound 0.1 µM). Moreover, the relative viability amounted to 0.575 with CX-5461 + Trametinib (first compound 0.3162 µM) and 0.649 with CX-5461 + Trametinib (first compound 1 µM).

For NCI-H3122, the relative viability is 0.966 with CX-5461 + Navitoclax (first compound 0.01 µM); 1.04 in the assay with CX-5461 + Navitoclax (first compound 0.03162 µM); 1.03 with CX-5461 + Navitoclax (first compound 0.1 µM); 1.01 with CX-5461 + Navitoclax (first compound 0.3162 µM); 0.97 in the assay with CX-5461 + Navitoclax (first compound 1 µM); 0.192 with CX-5461 + Palbociclib (first compound 0.01 µM). In addition, the relative viability was 0.191 with CX-5461 + Palbociclib (first compound 0.03162 µM); 0.175 with CX-5461 + Palbociclib (first compound 0.1 µM); 0.169 with CX-5461 + Palbociclib (first compound 0.3162 µM); 0.186 with CX-5461 + Palbociclib (first compound 1 µM); 0.99 in the assay with CX-5461 + Linsitinib (first compound 0.01 µM); 1.05 in the assay with CX-5461 + Linsitinib (first compound 0.03162 µM). Further, the relative viability in the assay with CX-5461 + Linsitinib (first compound 0.1 µM) is 0.994; with CX-5461 + Linsitinib (first compound 0.3162 µM), 1.1; with CX-5461 + Linsitinib (first compound 1 µM), 0.973; in the assay with CX-5461 + Trametinib (first compound 0.01 µM) it was 0.21; with CX-5461 + Trametinib (first compound 0.03162 µM), 0.213; with CX-5461 + Trametinib (first compound 0.1 µM) it was 0.205. In addition, the relative viability with CX-5461 + Trametinib (first compound 0.3162 µM) worked out at 0.248; with CX-5461 + Trametinib (first compound 1 µM), 0.186.
